# Data as given in ChEMBL document CHEMBL1201862, “PubChem BioAssay data set” (2004).
#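 96-well plates; 48 h exposure; 5 concentrations. Endpoints by linear interpolation between flanking doses. Not reached: highest tested concentration assigned. GI50 = concentration required for 50% inhibition of growth.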 Calls of active or inactive are those of the source. No stated cut-off is given here; in the data, active = GI50 up to about 1.1 µM and inactive = higher.
# Assays:
# Test in all cases: NCI anticancer screen, dose series, 48 h
# [1] = test system: 786-0
# [2] = test system: A549
# [3] = test system: EKVX
# [4] = test system: HCC 2998
# [5] = test system: IGROV-1
# [6] = test system: LOX IMVI
# [7] = test system: MCF7
# [8] = test system: NCI-H226
# [9] = test system: NCI-H522
# [10] = test system: OVCAR-3
# [11] = test system: RPMI-8226
# [12] = test system: SF-268
# [13] = test system: SN12C
# [14] = test system: SNB-19
# [15] = test system: SR
# [16] = test system: TK-10
# [17] = test system: UO-31
# [18] = test system: COLO 205
# [19] = test system: MDA-MB-435
# [20] = test system: NCI/ADR-RES
Structure (SMILES),GI50 [1],GI50 [2],GI50 [3],GI50 [4],GI50 [5],GI50 [6],GI50 [7],GI50 [8],GI50 [9],GI50 [10],GI50 [11],GI50 [12],GI50 [13],GI50 [14],GI50 [15],GI50 [16],GI50 [17],GI50 [18],GI50 [19],GI50 [20]
N#Cc1c(N)nc(S)c(C#N)c1-c1ccccc1,> 100 µM (inactive),> 100 µM (inactive),> 100 µM (inactive),> 100 µM (inactive),> 100 µM (inactive),> 100 µM (inactive),> 100 µM (inactive),> 100 µM (inactive),47.3 µM (inactive),> 100 µM (inactive),> 100 µM (inactive),> 100 µM (inactive),> 100 µM (inactive),> 100 µM (inactive),> 100 µM (inactive),> 100 µM (inactive),52.8 µM (inactive),,,
Cc1c(Cl)cccc1NC(=O)/C(Cl)=C(\Cl)C(=O)O,18.4 µM (inactive),19.5 µM (inactive),> 10 µM (inactive),20.3 µM (inactive),19.5 µM (inactive),18.7 µM (inactive),,20.7 µM (inactive),2.1 µM (inactive),19 µM (inactive),11.8 µM (inactive),22.6 µM (inactive),17.4 µM (inactive),44.8 µM (inactive),5.26 µM (inactive),20.9 µM (inactive),18.7 µM (inactive),9.4 µM (inactive),,
O=C(/C=C/c1ccc(Cl)cc1)c1ccncc1,76.2 µM (inactive),58.5 µM (inactive),64.4 µM (inactive),40.4 µM (inactive),48.2 µM (inactive),27.1 µM (inactive),,> 100 µM (inactive),64.9 µM (inactive),40.8 µM (inactive),89.3 µM (inactive),85.9 µM (inactive),51.4 µM (inactive),98.4 µM (inactive),45.9 µM (inactive),33.4 µM (inactive),40.3 µM (inactive),> 100 µM (inactive),,
CC(=O)c1c(-c2ccc(Cl)cc2)c(C#N)c(=S)n(C2OC(CO)C(O)C(O)C2O)c1C (stereo unspecified),63.2 µM (inactive),71 µM (inactive),,> 100 µM (inactive),35.6 µM (inactive),30.1 µM (inactive),,58.3 µM (inactive),32.3 µM (inactive),30.8 µM (inactive),,53.3 µM (inactive),52.6 µM (inactive),31 µM (inactive),30.3 µM (inactive),70.6 µM (inactive),1.44 µM (inactive),32.5 µM (inactive),37.8 µM (inactive),> 100 µM (inactive)
C=C(C(=C)P(=S)(C(C)C)C(C)C)P(=S)(C(C)C)C(C)C,> 100 µM (inactive),> 100 µM (inactive),> 100 µM (inactive),> 100 µM (inactive),> 100 µM (inactive),> 100 µM (inactive),,> 100 µM (inactive),> 100 µM (inactive),> 100 µM (inactive),> 100 µM (inactive),> 100 µM (inactive),> 100 µM (inactive),> 100 µM (inactive),> 100 µM (inactive),> 100 µM (inactive),> 100 µM (inactive),> 100 µM (inactive),,
O=C(O)c1c2c(cc3c(=O)c4ccccc4[nH]c13)CCCC2,72.8 µM (inactive),> 100 µM (inactive),> 100 µM (inactive),46.3 µM (inactive),> 100 µM (inactive),60.5 µM (inactive),,> 100 µM (inactive),,> 100 µM (inactive),> 100 µM (inactive),> 100 µM (inactive),> 100 µM (inactive),88.5 µM (inactive),> 100 µM (inactive),> 100 µM (inactive),> 100 µM (inactive),> 100 µM (inactive),,
CC(C)c1ccccc1NC(=O)CCc1n[nH]c(=S)o1,> 100 µM (inactive),99.8 µM (inactive),> 100 µM (inactive),> 100 µM (inactive),> 100 µM (inactive),> 100 µM (inactive),,> 100 µM (inactive),> 100 µM (inactive),> 100 µM (inactive),> 48.9 µM (inactive),> 100 µM (inactive),> 100 µM (inactive),> 100 µM (inactive),> 100 µM (inactive),> 100 µM (inactive),> 100 µM (inactive),27.2 µM (inactive),,
C/C(CC(=O)NC1=CC=C(NC(=O)C/C(C)=N\Nc2ccccc2)CC1)=N/Nc1ccccc1,> 100 µM (inactive),> 100 µM (inactive),> 100 µM (inactive),> 100 µM (inactive),> 100 µM (inactive),70.8 µM (inactive),,> 100 µM (inactive),72.6 µM (inactive),> 100 µM (inactive),> 100 µM (inactive),> 100 µM (inactive),> 100 µM (inactive),> 100 µM (inactive),37.8 µM (inactive),> 100 µM (inactive),> 100 µM (inactive),27.1 µM (inactive),,
Cc1nc2ccccc2[s+]c1-c1cnc(NC#N)nc1C(=O)Nc1cccc(Cl)c1,> 100 µM (inactive),> 100 µM (inactive),> 100 µM (inactive),> 100 µM (inactive),> 100 µM (inactive),> 100 µM (inactive),,> 100 µM (inactive),> 100 µM (inactive),> 100 µM (inactive),> 100 µM (inactive),> 100 µM (inactive),> 100 µM (inactive),> 100 µM (inactive),> 100 µM (inactive),> 100 µM (inactive),> 100 µM (inactive),> 100 µM (inactive),,
N#CC(C(=O)C(=O)C(C#N)c1ccc(Br)cc1)c1ccc(Br)cc1 (stereo unspecified),12.9 µM (inactive),23.3 µM (inactive),12 µM (inactive),12 µM (inactive),15.6 µM (inactive),11 µM (inactive),,18.1 µM (inactive),,9.38 µM (inactive),4.65 µM (inactive),10.5 µM (inactive),14.5 µM (inactive),17 µM (inactive),6.37 µM (inactive),16.8 µM (inactive),16.3 µM (inactive),16.5 µM (inactive),,
Cc1cc2c(c(=O)n1C)SCC2,> 100 µM (inactive),> 100 µM (inactive),,> 100 µM (inactive),> 100 µM (inactive),> 100 µM (inactive),,> 100 µM (inactive),> 100 µM (inactive),> 100 µM (inactive),> 100 µM (inactive),> 100 µM (inactive),> 100 µM (inactive),> 100 µM (inactive),> 100 µM (inactive),> 100 µM (inactive),> 100 µM (inactive),> 100 µM (inactive),> 100 µM (inactive),> 100 µM (inactive)
O=C1C(Cl)=C(NCCN2CCOCC2)C(=O)c2ncccc21,1.44 µM (inactive),2 µM (inactive),1.75 µM (inactive),1.47 µM (inactive),1.97 µM (inactive),1.01 µM (active),1.66 µM (inactive),2.1 µM (inactive),,1.6 µM (inactive),,1.99 µM (inactive),1.73 µM (inactive),1.69 µM (inactive),,1.96 µM (inactive),1.65 µM (inactive),,0.195 µM (active),
